Measured values reported in patent US5270302A, “Derivatives of tetrapeptides as CCK agonists” (priority 1991, dated 1993).
Read-outs that look alike come from different tables or passages of the source. *1 amine or outer side, *2 acyl side, *3 side chain or, on linkers, in order; H or OH if unused. Where a SMILES comes first, the peptide text is derived from it. Side-chain parts run from the residue outwards. [ ]: non-standard residue; d: D form. The star is where a group is joined. ξ: configuration not given here. ξαMeW = CC(N)(Cc1c[nH]c2ccccc12)C(=O)O; NMeF = CN[C@@H](Cc1ccccc1)C(=O)O; NMeD = CN[C@@H](CC(=O)O)C(=O)O; NH(2-Me-phenyl) = Cc1ccccc1N*; Boc = CC(C)(C)OC(=O)*; CO = O=C([*:1])[*:2]

What was measured:
mice [1] = assay: Measurement of plasma insulin in mice following treatment with CCK-8 or a CCK agonist; assay type: in vivo; conditions: tail vein injection, 2 minutes
Method: Measurement of Plasma Insulin in Mice Following Treatment With CCK-8 or a CCK Agonist
Male mice, weighing from about 20 to about 30 g each, were used in all experiments. The animals were fed with laboratory lab chow and water ad libitum. CCK-8 or one the CCK agonist compounds of this invention was injected into the tail vein. Two minutes later, the animals were sacrificed and the blood was collected in 1.5 mL heparinized polypropylene tubes. The tubes were centrifuged at 10,000×g for 2 minutes. The insulin levels were determined in the supernatant, i.e., plasma, by radioimmuno assay (RIA) using kits obtained from Radioassay Systems Laboratory (Carson, CA.) or Novo Biolabs (Danbury, Conn.). The results of this assay are shown in Table 3 and are expressed as the percent increase in insulin secretion over insulin secretion observed in mice injected with a saline solution. Each dose was tested in at least six mice and the values presented are averages for the group of mice tested at each dose.

guinea pig gallbladder = conditions: read-out: EC50 for contraction; isolated guinea pig gallbladder, 37° C.; 50% of the compound's own maximal contraction
Method: Guinea Pig Gallbladder Contraction
Gallbladders were obtained from male guinea pigs (250-300 gm). The bile was emptied by a small incision and the gallbladder was suspended in an organ bath. The tissue was maintained at 37° C., suspended in Krebs-Ringer buffer (mM: NaCl, 118; KCl, 4.7; CaCl2, 2.5; MgCl2, 1.2; NaH2 PO4, 1.2; NaHCO3, 25; choline chloride, 30 mM; glucose, 11) and bubbled with 95% O2 -5% CO2. Isometric contractions were recorded with a Grass polygraph. Baseline tension was set at 0.3 grams. After equilibration for approximately 30 minutes, CCK-8 (20 nM) was introduced and tensions were recorded. After reaching maximal contractions (about 5 minutes), the drug was washed out by overflow. The CCK-8 addition was repeated twice to ensure constant force of contraction.

rats [2] = assay: Feeding effect of CCK agonists in food-deprived rats; assay type: in vivo; conditions: i.p., dose 20 μg/kg, one hour feeding, vehicle 9.40 grams
Method: Feeding Effect of CCK Agonists in Rats
Forty male, Sprague-Dawley rats were subjected to a 23 hour food deprivation schedule for four days. On the fifth day, the animals were divided into five equal groups based on their previous (4th day) food intake. […] The amount of food consumed was measured after subtraction of spillage.

rats [3] = assay: Feeding effects of chronic administration of CCK-8 and CCK agonists in rat (liquid diet); assay type: in vivo; conditions: ip, 10 nmol/kg, 11 days of testing
Method: Feeding Effects of Chronic Administration of CCK-8 and CCK Agonists in Rat
Adult male Sprague-Dawley rats, weighing approximately 250 g, were placed on a restricted diet. Rats were weighed every morning and were allowed access to a liquid diet (Ensure®) for 60 minutes in the morning and 45 minutes in the late afternoon; intakes were recorded every 15 minutes. […] Six to 10 minutes later, the rats were presented with the diet, and intakes were recorded as usual. No injections were administered prior to the PM feeding. After 11 days of testing, half of the animals were sacrificed while the remaining rats were withdrawn from treatment and injected with vehicle for 4 days.

mice [4] = assay: Behavioral effect of CCK agonists in mice (suppression of locomotor activity); assay type: in vivo
Text: Behavioral Effect of CCK Agonists in Mice
The animals were placed on a slightly elevated metal grid and restrained by the thumb and forefinger at the level of the shoulders, thus immobilizing their heads. Injections were made with a 30 gauge needle with a "stop" consisting of a piece of tygon tubing to limit penetration of the needle to about 4.5 mm below the surface of the skin. The needle was inserted perpendicular to the skull at a midline point equidistant from each eye and an equal distance posterior from the level of the eyes such that the injection site and the two eyes form an equilateral triangle. The injection volume (5 ul) was expelled smoothly over a period of approximately 1 second.
Immediately after the injections the mice were placed in their cages and allowed a 15 minute recovery period prior to the beginning of behavioral observations.
For the behavioral observations, the mice were placed in clear plastic cages. Each cage measured 19×26×15 cm and contained a 60-tube polypropylene test tube rack place on end in the center of the cage to enhance exploratory activity. Observations were made every 30 seconds for a period of 30 minutes. […] Differences among groups were analyzed by Newman-Kewels analysis and a probability level of p<0.05 was accepted as significant.

Type-A CCK receptor = target: T1, Type-A CCK receptor (Cavia porcellus, UniProt Q63931); assay: Radioligand binding of [125I]BH-CCK-8 in guinea pig pancreatic membrane preparations
T1 construct: Cortical and pancreatic membranes were prepared as described; from tissue; host or cells: guinea pig pancreas membranes
T1 sequence (Q63931 1-430): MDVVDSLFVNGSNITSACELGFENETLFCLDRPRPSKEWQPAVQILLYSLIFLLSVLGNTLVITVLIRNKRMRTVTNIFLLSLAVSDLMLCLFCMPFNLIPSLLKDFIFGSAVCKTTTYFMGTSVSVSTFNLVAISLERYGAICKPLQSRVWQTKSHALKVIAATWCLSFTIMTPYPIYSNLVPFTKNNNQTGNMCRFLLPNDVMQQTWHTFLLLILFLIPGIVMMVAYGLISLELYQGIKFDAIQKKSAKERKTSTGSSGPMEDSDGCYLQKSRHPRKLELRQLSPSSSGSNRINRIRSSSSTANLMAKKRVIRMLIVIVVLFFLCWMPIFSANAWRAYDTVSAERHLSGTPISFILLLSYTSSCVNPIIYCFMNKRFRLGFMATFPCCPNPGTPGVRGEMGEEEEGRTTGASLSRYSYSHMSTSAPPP
Method in brief: (§1)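 Membranes came from male guinea pig pancreas (type A) or cerebral cortex (type B) and were resuspended in pH 7.4 HEPES-EGTA-salt buffer containing bestatin and phosphoramidon. Test compounds competed with [125I]BH-CCK-8 in 0.1% BSA: cortex 150 min at 30 °C, pancreas 150 min at 37 °C. Reactions ended by filtration; IC50 from Hill analysis.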

rats [5] = assay: Feeding effects of acute administration of CCK agonists in rats (liquid diet); assay type: in vivo; conditions: i.p., acute (1 day)
Text: Feeding Effects of Acute Administration of CCK Agonists in Rats
The experimental paradigm used in the above-mentioned chronic feeding studies was employed to establish dose reponses for CCK agonists of this invention on an acute (1 day) basis. Following an 8-day diet acclimation period, the rats were weighed and injected with vehicle. CCK-8 or test compound (see Table 7) at doses ranging from 1-1000 nmol/kg (i.p.). Six to ten minutes later, the rats were presented with the diet and intakes were recorded. No injections were administered prior to the P.M. feeding. Mean A.M. intakes as a percent of control were plotted versus log dose (nm/kg) to establish the dose response curve.

Type-B CCK receptor = target: T2, Type-B CCK receptor (Cavia porcellus, UniProt H0VZC5); assay: Radioligand binding of [125I]BH-CCK-8 in guinea pig cerebral cortical membrane preparations
T2 construct: Cortical and pancreatic membranes were prepared as described; from tissue; host or cells: guinea pig cerebral cortex membranes
T2 sequence (H0VZC5 1-426): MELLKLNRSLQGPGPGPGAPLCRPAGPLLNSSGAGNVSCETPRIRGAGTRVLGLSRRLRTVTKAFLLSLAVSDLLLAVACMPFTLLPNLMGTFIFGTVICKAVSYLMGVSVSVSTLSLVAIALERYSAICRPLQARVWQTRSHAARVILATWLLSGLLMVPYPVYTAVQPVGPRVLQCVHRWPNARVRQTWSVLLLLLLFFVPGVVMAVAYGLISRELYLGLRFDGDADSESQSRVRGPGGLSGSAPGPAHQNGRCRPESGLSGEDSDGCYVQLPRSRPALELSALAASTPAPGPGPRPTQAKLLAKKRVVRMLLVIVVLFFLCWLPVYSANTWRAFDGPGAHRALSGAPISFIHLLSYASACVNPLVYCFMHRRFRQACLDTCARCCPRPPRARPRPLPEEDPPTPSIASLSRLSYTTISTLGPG
Method in brief: as §1

guinea pig acini = target: T3, guinea pig acini (Cavia porcellus, UniProt Q63931); assay: Amylase release assay in guinea pig pancreatic acini; assay type: cell-based; conditions: 30 minutes at 37° C., reference CCK-8 3×10^-10 M
T3 sequence (Q63931 1-430): T1 sequence (Q63931 1-430)
Method: Protocol for Amylase Release Assay
Guinea Pig Acini Preparation
Pancreas was dissected out and connective tissues and blood vessels were removed. The pancreas was cut into small pieces (2 mm) by a scissor and placed in a 15 mL conical plastic tube containing 2.5 mL of Krebs-Ringer HEPES (KRH) buffer plus 400 units per mL of collagenase. […] The buffer was supplemented with 1% MEM vitamins, 1% MEM amino acids and 0.001% aprotinin (pancreatic basic trypsin inhibitor). […] The supernatant was discarded and 6 mL of the KRH was added to the cell pellet. […] This wash procedure was repeated once. The cell pellet from the last centrifugation step was then resuspended in 15 mL of KRH containing 0.1% BSA. […] The filtrate, containing the acini, was centrifuged at 50×g for 3 minutes. The acini were then resuspended in 5 mL of KRH-BSA buffer for 30 minutes at 37° C. under 100% O2, with a change of fresh buffer at 15 minutes.
After the 30 minutes incubation time, the acini was resuspended in 100 volumes of KRH-BSA buffer, containing 3 μM phosphoramidon and 100 μM bestatin. […] Amylase activity in the supernatant and the cell pellet were separately determined after appropriate dilutions in 0.1% Triton X-100® (a non-ionic detergent available from Sigma Chemical Co.), 20 mM NaH2 PO4, pH 7.4, by Abbott Amylase A-gent® test using the Abbott Bichromatic Analyzer 200.

[6] = guinea pig pancreatic membranes, 37° C., 150 min, read-out: IC50 (nM) 125I-BH-CCK-8 Type-A receptor
[7] = guinea pig cortical membranes, 30° C., 150 minutes, read-out: IC50 (nM) 125I-BH-CCK-8 Type-B receptor

Compound: CSCC[C@H](NC(=O)[C@H](Cc1ccc(OS(=O)(=O)O)cc1)NC(=O)[C@@H](N)CC(=O)O)C(=O)NCC(=O)N[C@@H](Cc1c[nH]c2ccccc12)C(=O)N[C@@H](CCSC)C(=O)N[C@@H](CC(=O)O)C(=O)N[C@@H](Cc1ccccc1)C(N)=O [CCK-8, Asp-Tyr(SO3 H)-Met-Gly-Trp-Met-Asp-PheNH2]
- % Increase In Insulin Secretion Versus Saline Control (mice [1]; dose 3 nmole/kg): 65%
- % Increase In Insulin Secretion Versus Saline Control (mice [1]; dose 10 nmole/kg): 85%
- % Increase In Insulin Secretion Versus Saline Control (mice [1]; dose 30 nmole/kg): 90%
- % Increase In Insulin Secretion Versus Saline Control (mice [1]; dose 100 nmole/kg): 70%
- EC50 (guinea pig gallbladder): 0.0059 µM
- Mean Food Intake (rats [2]): 6.56 grams
- AM liquid food intake versus controls (rats [3]): significantly reduced intakes on just the first and last treatment days
- body weight gain versus controls (rats [3]): no significant effects on body weight gain
- Minimal Effective Dose, suppression of locomotor activity (mice [4]; ICV administration): 3.0 nmol/mouse
- Minimal Effective Dose, suppression of locomotor activity (mice [4]; IP administration): 0.001 µmol/kg

Compound: Cc1ccccc1NC(=O)NCCCC[C@H](NC(=O)[C@H](Cc1c[nH]c2ccccc12)NC(=O)OC(C)(C)C)C(=O)N[C@@H](CC(=O)O)C(=O)N(C)[C@@H](Cc1ccccc1)C(N)=O [Example 33, t-BOC-Trp-Lys(ε-N-(2-methylphenyl)aminocarbonyl)-Asp-(NMe)PheNH2] (Boc-WK([CO-NH(2-Me-phenyl)])D[NMeF]-NH2)
- EC50 (guinea pig gallbladder): 0.01 µM

Compound: Cc1ccccc1NC(=O)NCCCC[C@H](NC(=O)[C@H](Cc1c[nH]c2ccccc12)NC(=O)OC(C)(C)C)C(=O)N(C)[C@@H](CC(=O)O)C(=O)N(C)[C@@H](Cc1ccccc1)C(N)=O [Example 61, t-BOC-Trp-Lys(ε-N-(2-methylphenyl)aminocarbonyl)(NMe)Asp-(NMe)PheNH2] (Boc-WK([CO-NH(2-Me-phenyl)])[NMeD][NMeF]-NH2)
- IC50 (Type-A CCK receptor): 4.8 nM
- ED25, suppression of feeding (liquid diet) (rats [5]): 0.6 nmol/kg
- ED50, dose required to decrease mean A.M. food intake by 50% (rats [5]): 2.6 nmol/kg
- IC50 (Type-B CCK receptor): 10000 nM

Compound: Cc1ccccc1NC(=O)NCCCC[C@H](NC(=O)C(C)(N)Cc1c[nH]c2ccccc12)C(=O)N[C@@H](CC(=O)O)C(=O)N[C@@H](Cc1ccccc1)C(N)=O (stereo partly drawn) [Example 97, D,L-(α-Methyl)Trp-Lys(ε-N-(2-methylphenyl)aminocarbonyl)-Asp-PheNH2] (H-[ξαMeW]K([CO-NH(2-Me-phenyl)])DF-NH2)
- IC50 (Type-A CCK receptor; IC50 (nM) 125I-BH-CCK-8 Type-A receptor, guinea pig pancreatic membranes, 37° C., 150 min): 11 nM
- ED25, suppression of feeding (liquid diet) (rats [5]): 1.8 nmol/kg
- ED50, dose required to decrease mean A.M. food intake by 50% (rats [5]): 9.4 nmol/kg
- IC50 (Type-B CCK receptor; IC50 (nM) 125I-BH-CCK-8 Type-B receptor, guinea pig cortical membranes, 30° C., 150 minutes): 2600 nM

Compound: Cc1ccccc1NC(=O)NCCCC[C@H](NC(=O)C(Cc1c[nH]c2ccccc12)C(N)=O)C(=O)N[C@@H](CC(=O)O)C(=O)N(C)[C@@H](Cc1ccccc1)C(N)=O (stereo partly shown) [Example 106, (2-Aminocarbonyl-3-(3-indolyl)propionyl)-Lys(ε-N-(2-methylphenyl)aminocarbonyl)-Asp-(NMe)PheNH2]
- IC50 (Type-A CCK receptor; [6]): 13 nM
- ED25, suppression of feeding (liquid diet) (rats [5]): 6.9 nmol/kg
- ED50, dose required to decrease mean A.M. food intake by 50% (rats [5]): 58.5 nmol/kg
- IC50 (Type-B CCK receptor; [7]): > 10000 nM

Compound: CCOC(=O)C(C)(Cc1c[nH]c2ccccc12)C(=O)N[C@@H](CCCCNC(=O)Nc1ccccc1C)C(=O)N[C@@H](CC(=O)O)C(=O)N(C)[C@@H](Cc1ccccc1)C(N)=O (stereo partly shown) [Example 107, (2-Carboethoxy-2-methyl-3-(3-indolyl)propionyl)-Lys(ε-N-(2-methylphenyl)amino-carbonyl)-Asp-(NMe)PheNH2]
- IC50 (Type-A CCK receptor; [6]): 21 nM
- ED25, suppression of feeding (liquid diet) (rats [5]): 3.7 nmol/kg
- ED50, dose required to decrease mean A.M. food intake by 50% (rats [5]): 26.1 nmol/kg
- IC50 (Type-B CCK receptor; [7]): 1400 nM

Compound: t-BOC-Trp-Nle(6-((2-methylphenyl)aminocarbonyl)oxy)-Asp-(NMe)PheNH2 [Example 114]
- EC50 (guinea pig acini): 0.003 µM
